{"source": "patent US20260295119A1", "about": "“TARGET FOR COMBATTING THE FOREIGN BODY RESPONSE TO IMPLANTABLE BIOMATERIALS” (The Regents of the University of Colorado, a body corporate, priority 2023, published 2026)", "key": {"[1]": {"tested_on": "RAW 264.7 macrophages", "assay": "IL-6 production by PAM3CSK4-stimulated RAW 264.7 macrophages", "format": "cell-based, mouse", "procedure": "The ability of free MyD88 inhibitor T6167923 (Br) or T6167923 (SH) in solution to attenuate pro-inflammatory cytokine production by macrophages treated with PAM3CSK4 was assessed (FIG. 12A). When macrophages were treated with PAM3CSK4, IL-6 production increased (p<0.01) by 3-fold. […] Comparing the two inhibitors at 100 μM, T6167923 (Br) had attenuated IL-6 production by 89%, while T6167923 (SH) had attenuated IL-6 product by 58%.\nInhibitor Preparation and Synthesis: 200 μM stock solutions of T6167923 (Br) and T6167923 (SH) were prepared by first dissolving the inhibitors in 100 μL anhydrous DMSO, then adding dropwise to 9.9 mL culture medium and sterile filtering. The stock solution was then serially diluted in additional cell culture medium to make treatment concentrations. The inhibitor-PEG-peptide molecule was synthesized as follows. Bromoacetamido-dPEG12-TFP ester (36 mg) was added to 400 μL anhydrous DMSO and stirred in an amber vial to dissolve. T6167923 (SH) (17.65 mg) was dissolved in 100 μL anhydrous DMSO before being added dropwise to the amber vial. After 20 minutes of stirring, 1.5 mL of 50 mM sodium bicarbonate buffer, pH 8.4 was slowly added to the vial and the reaction was continued for an additional 20 minutes. Triglycine (8.6 mg) was combined with 2 mL of 50 mM sodium bicarbonate buffer, pH 8.4, then added dropwise to the reaction mixture in the amber vial with stirring. The reaction progressed overnight, then the product was purified by dialysis with 100-500 MWCO tubing against DI water. The reaction was monitored by consumption of sulfhydryls and primary amines. The product was sterile filtered and then lyophilized.\nCell Culture: RAW 264.7 cells were cultured in DMEM with 10% FBS and 1% penicillin/streptomycin at 37° C. and 5% CO2. Depending on the experiment, cells were seeded in tissue culture polystyrene (TCPS) well plates ([…]) or on hydrogels at 625,000 cells/cm^2 and allowed to adhere overnight. For transwell experiments, a transwell with a hydrogel was inserted into the well after the cells were allowed to adhere. For the (T6167923 (Br), T6167923 (SH)), and inhibitor-PEG-peptide studies, cells were treated with inhibitor for a specified period of time. To do this, medium was aspirated from the well and replaced with inhibitor-containing DMEM. Control conditions included cells only and cells plus 1% anhydrous DMSO by volume. After a specified period of culture time, PAM3CSK4 was added at 50 ng/ml and the cells were cultured for a prescribed period of time. Medium was collected and flash frozen for ELISA. […]\n(§1) Protein Assays: Cell culture medium was thawed on ice. IL-6 in the culture media was quantified using an ELISA. MMP-12 production in culture media was measured per kit instructions. […]"}, "[2]": {"target": "T1, human MMP-12 (Homo sapiens, UniProt P39900)", "T1 construct": "purchased R&D Systems", "T1 sequence (P39900 106-470)": "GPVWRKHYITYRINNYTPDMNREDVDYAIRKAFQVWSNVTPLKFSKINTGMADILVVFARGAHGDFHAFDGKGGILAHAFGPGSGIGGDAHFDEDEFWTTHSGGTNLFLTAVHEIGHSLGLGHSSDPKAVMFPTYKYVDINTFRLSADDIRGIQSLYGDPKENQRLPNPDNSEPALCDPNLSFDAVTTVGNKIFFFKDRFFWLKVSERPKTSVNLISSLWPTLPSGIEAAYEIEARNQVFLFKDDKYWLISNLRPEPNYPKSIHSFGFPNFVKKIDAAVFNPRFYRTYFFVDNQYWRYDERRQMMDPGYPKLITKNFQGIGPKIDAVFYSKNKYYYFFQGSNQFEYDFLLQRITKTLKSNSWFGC", "assay": "Cleavage of hydrogel-tethered tryptophan peptides by MMP-12", "format": "biochemical", "conditions": "role: substrate; 5 nM activated MMP-12, 285 nm; p<0.001", "procedure": "To test the cleavability of the chosen peptides by MMP-12, the sequences were modified with tryptophan residues, tethered to PEG hydrogels at 5 μM concentration, and exposed to 5 nM MMP-12 in buffer. First, the maleimide of acrylate-PEG-maleimide (MW 3,400 g/mol) was reacted with the cysteine residue contained in the peptide sequence to create a PEG-conjugated peptide with tryptophan at one end and an acrylate group at the other. This product was then combined with PEGDA monomer and photoinitiator in PBS and photopolymerized, yielding a gel (FIG. 14C). The release of the tryptophan-containing cleaved portion of the sequence was monitored by measuring buffer absorbance at 285 nm over time (FIG. 14D).\nFor the release studies, acrylate-PEG-maleimide (6.8 mg) was reacted with peptide (GWGPLGLEEACG [SEQ ID NO. 2] or GWGPLGLARCG [SEQ ID NO. 1], 5 mM) in 500 μL dry DMF for 30 minutes with stirring. PEGDA (100 mg) was then added to the reaction mixture and vortexed to combine. Irgacure 2959 was added as photoinitiator in dry DMF (6 mg/mL). This precursor solution was gelled between glass slides with a 1 mm spacer under UV light for 45 minutes. The resulting 20 wt % hydrogel was soaked in ultrapure water to rinse away DMF followed by additional rinses in TCNB assay buffer (50 mM Tris, 10 mM CaCl2, 150 mM NaCl, 0.05% (w/v) Brij-35, pH 7.5).\nTryptophan Release: Peptide-conjugated hydrogels swollen in TCNB assay buffer were punched to 5 mm diameter and placed in wells of a 96-well clear, flat bottom well plate (n=4 gels for each peptide). Human MMP-12 was reconstituted in 10 mM MES, 0.1 M NaCl, 100 μM CaCl2, 0.1% (w/v) CHAPS, 1 μM ZnSO4, 0.1% (w/v) PEG, pH 6.0 buffer to 0.25 mg/mL. It was then diluted to 50 μg/mL with TCNB assay buffer and activated by adding 100 mM APMA in DMSO to 1 mM final concentration and incubating at 37° C. for 24 hours. […] At each time point, 2 μL supernatant was removed from each well and spectrophotometrically measured on the Nanodrop at 285 nm. […]"}, "[3]": {"tested_on": "RAW 264.7 macrophages", "assay": "MMP-12 secretion by RAW 264.7 macrophages (ELISA)", "format": "cell-based, mouse", "conditions": "PAM3CSK4 50 ng/ml, 8 h", "procedure": "RAW 264.7 macrophages were cultured in serum-free (1% ITS) media (FIG. 14A) or serum-containing medium (10% FBS) (FIG. 14(B)) and treated or not with PAM3CSK4 (50 ng/ml), then their secretion of MMP-12 over the 8-hour period was evaluated by ELISA. Macrophages with (p<0.01) and without (p<0.001) PAM3CSK4 stimulation secreted MMP-12 when cultured in the serum-free media, with average levels of 245 and 556 μg/mL, respectively. In serum-containing media, the production of MMP-12 was on average 178 μg MMP-12/mL (p<0.01 relative to blank) in unstimulated cells. […] Unstimulated cells in the same media secreted MMP-12. MMP-12 production by the cells was higher in ITS media than in FBS media.\nCell Culture: RAW 264.7 cells were cultured in DMEM with 10% FBS and 1% penicillin/streptomycin at 37° C. and 5% CO2. Depending on the experiment, cells were seeded in tissue culture polystyrene (TCPS) well plates ([…]) or on hydrogels at 625,000 cells/cm^2 and allowed to adhere overnight. For transwell experiments, a transwell with a hydrogel was inserted into the well after the cells were allowed to adhere. […]\nas §1"}}, "note": "No end group written: not given here."}
{"molecule": "C[C@H](NC(=O)N1CCN(S(=O)(=O)c2cccc(Br)c2)CC1)c1cccs1", "note": "[T6167923 (Br)]", "values": [{"measurement": "attenuation of IL-6 production", "setting": "[1]; 100 μM inhibitor, PAM3CSK4 50 ng/ml", "result": 89, "unit": "%"}, {"measurement": "dose dependence of IL-6 attenuation", "setting": "[1]; PAM3CSK4 50 ng/ml", "result": "a dose-dependent response was observed"}, {"measurement": "inhibitor concentrations at which IL-6 was significantly lower than untreated PAM3CSK4-stimulated cells", "setting": "[1]; PAM3CSK4 50 ng/ml", "result": "50 to 200", "unit": "µM"}]}
{"molecule": "GWGPLGLARCG [SEQ ID NO. 1]: MMP-12 cleavable peptide, tryptophan modified, tethered to PEG hydrogel (also: tethered to PEG hydrogel)", "values": [{"measurement": "cleavage by MMP-12 (tryptophan cumulative release)", "setting": "[2]", "result": "cleaved by the MMP-12"}, {"measurement": "rate of cleavage by MMP-12 relative to the longer peptide (SEQ ID NO. 2)", "setting": "[2]", "result": "slightly faster rate"}]}
{"molecule": "GWGPLGLEEACG [SEQ ID NO. 2]: MMP-12 cleavable peptide, tryptophan modified, tethered to PEG hydrogel (also: tethered to PEG hydrogel)", "values": [{"measurement": "cleavage by MMP-12 (tryptophan cumulative release)", "setting": "[2]", "result": "cleaved by the MMP-12"}]}
{"molecule": "PAM3CSK4", "values": [{"measurement": "increase in IL-6 production", "setting": "[1]; PAM3CSK4 treatment vs unstimulated, no inhibitor, p<0.01", "result": "3 -fold"}, {"measurement": "MMP-12 levels compared to blank (no cells)", "setting": "[3]; serum-containing medium (10% FBS)", "result": "not statistically different to the blank"}, {"measurement": "MMP-12 secretion", "setting": "[3]; serum-free (1% ITS) media, p<0.01 vs blank", "result": 245, "unit": "µg/mL"}]}
